Assays:
Assay type in all cases: cell-based
[1] = system: HIV-1-GFP; assay: microbe, parasite or virus in culture
Description: H9 and Jurkat cells (6 × 10^5 cells/mL) were treated with increasing concentrations of nucleoside analogues (0–200 μM; except CFB, 0–1.6 μM) and incubated for 4 h at 37 °C in 5% CO2. Cells were then infected with HIV-1-GFP by spinoculation at 800 × g for 90 min in the presence of 1 μg/mL polybrene, and further incubated at 37 °C in 5% CO2 for 72 h. Undifferentiated U937 and THP-1 (PMA^−) cells (6 × 10^5 cells/mL) were treated with increasing concentrations of nucleoside analogues (0–200 μM; except CFB, 0–1.6 μM) and incubated at 37 °C in 5% CO2 for 48 h. Cells were then infected with HIV-1-GFP by spinoculation at 800 × g for 90 min in the presence of 1 μg/mL polybrene, and further incubated at 37 °C in 5% CO2 for 72 h. Non-dividing U937 and THP-1 (PMA^+) cells (6 × 10^5 cells/mL) were differentiated by addition of 100 nM PMA (PMA^+) for 48 h and treated with increasing concentrations of nucleoside analogues as described above. Cells were then infected with HIV-1-GFP in the presence of 1 μg/mL polybrene and further incubated at 37 °C in 5% CO2 for 72 h. The percentage of GFP^+cells was determined by one-colour flow cytometry using a Fortessa X20 analyser (BD Biosciences) and the data analysed using the FlowJo software suite.
(§1) Non-ambiguous values were subjected to a replicate test to calculate confidence intervals of 95% (95% CI). CC50 and EC50 values were determined for at least two independent experiments for each nucleoside analogue and a selectivity index (SI) also calculated, (SI = CC50/EC50). EC50 values for each replicate were used to perform an unpaired two-tailed t-test to determine significant differences between U937 cells expressing SAMHD1 wt or HD206-7AA mutant and THP-1 cells expressing Vpx or untransduced cells. P values of <0.005 were considered statistically significant.

[2] = system: HIV-1-GFP; assay: Anti-HIV-1 activity in U937 cells transduced with wt SAMHD1 or HD206-7AA mutant
Description: (§2) Antiviral assays were further performed in monocytoid cells transduced with YFP-expressing VLPs containing WT SAMHD1, HD206-7AA or Vpx. Briefly, U937 cells (6 × 10^5 cells/mL) were transduced with WT SAMHD1-YFP or HD206-7AA-YFP VLPs by spinoculation at 800 × g for 90 min in the presence of 1 μg/mL polybrene. Similarly, THP-1 cells (6 × 10^5 cells/mL) were transduced with Vpx-YFP VLPs by spinoculation at 800 × g for 90 min in the presence of 1 μg/mL polybrene. Cells were incubated at 37 °C in 5% CO2 and after 72 h, PMA^+ cells (6 × 10^5 cells/mL) were treated with 100 nM PMA and PMA^− cells (7.5 × 10^4 cells/mL) were left untreated. Cells were then incubated at 37 °C in 5% CO2 for 48 h. Nucleoside analogues were added at increasing concentrations (0–200 μM; except CFB, 0–1.6 μM) and cells were further incubated for 48 h. PMA^− cells were then infected with HIV-1-GFP by spinoculation at 800 × g for 90 min in the presence of 1 μg/mL polybrene, PMA^+ cells were infected with HIV-1-GFP in the presence of 1 μg/mL polybrene only. Cells were incubated for 72 h at 37 °C in 5% CO2 and then analysed by two-colour flow cytometry using a Fortessa X20 analyser (BD Biosciences). Data were analysed using the FlowJo software suite.
as §1, with “The cytotoxic concentration of nucleoside analogue that inhibits cell viability by 50% (CC50) and the effective concentration of nucleoside analogue that inhibits infection of cells by 50% (EC50) were calculated for each independent experiment by non-linear regression using GraphPad Prism v6.00 for Windows (GraphPad Software, San Diego, CA). Non-ambiguous” for “Non-ambiguous”

[3] = system: HIV-1-GFP; assay: Anti-HIV-1 activity in THP-1 cells with or without Vpx transduction
Description: as §2
as §1, with “The cytotoxic concentration of nucleoside analogue that inhibits cell viability by 50% (CC50) and the effective concentration of nucleoside analogue that inhibits infection of cells by 50% (EC50) were calculated for each independent experiment by non-linear regression using GraphPad Prism v6.00 for Windows (GraphPad Software, San Diego, CA). Non-ambiguous” for “Non-ambiguous”

[4] = Cytotoxicity, live cells by flow cytometry, H9 cells; details: human
Description: (§3) H9, Jurkat and undifferentiated U937 and THP-1 (PMA^−) cells (6 × 10^5 cells/mL) were treated with increasing concentrations of nucleoside analogues (0–200 μM; except CFB, 0–1.6 μM) and incubated at 37 °C in 5% CO2 for 48 h. Medium was then replaced and cells were further incubated for 72 h. Non-dividing U937 and THP-1 (PMA^+) cells (6 × 10^5 cells/mL) were differentiated by addition of 100 nM phorbol-12-myristate-13-acetate (PMA^+) for 48 h and then treated with increasing concentrations of nucleoside analogues as described above. The percentage of live cells was determined by flow cytometry using Live/Dead fixable blue-fluorescent dyes (Invitrogen) and a Fortessa X20 analyser (BD Biosciences). Data were analysed using the FlowJo software suite.
as §1, with “The cytotoxic concentration of nucleoside analogue that inhibits cell viability by 50% (CC50) and the effective concentration of nucleoside analogue that inhibits infection of cells by 50% (EC50) were calculated for each independent experiment by non-linear regression using GraphPad Prism v6.00 for Windows (GraphPad Software, San Diego, CA). Non-ambiguous” for “Non-ambiguous”

[5] = Cytotoxicity, live cells by flow cytometry, Jurkat cells; details: human
Description: as §3
as §1, with “The cytotoxic concentration of nucleoside analogue that inhibits cell viability by 50% (CC50) and the effective concentration of nucleoside analogue that inhibits infection of cells by 50% (EC50) were calculated for each independent experiment by non-linear regression using GraphPad Prism v6.00 for Windows (GraphPad Software, San Diego, CA). Non-ambiguous” for “Non-ambiguous”

[6] = Cytotoxicity, live cells by flow cytometry, U937 cells (PMA−/PMA+); details: human
Description: as §3
as §1, with “The cytotoxic concentration of nucleoside analogue that inhibits cell viability by 50% (CC50) and the effective concentration of nucleoside analogue that inhibits infection of cells by 50% (EC50) were calculated for each independent experiment by non-linear regression using GraphPad Prism v6.00 for Windows (GraphPad Software, San Diego, CA). Non-ambiguous” for “Non-ambiguous”

[7] = Cytotoxicity, live cells by flow cytometry, THP-1 cells (PMA−/PMA+); details: human
Description: as §3
as §1, with “The cytotoxic concentration of nucleoside analogue that inhibits cell viability by 50% (CC50) and the effective concentration of nucleoside analogue that inhibits infection of cells by 50% (EC50) were calculated for each independent experiment by non-linear regression using GraphPad Prism v6.00 for Windows (GraphPad Software, San Diego, CA). Non-ambiguous” for “Non-ambiguous”

[8] = system: U937 cells; assay: Cytotoxicity, live cells by flow cytometry, U937 cells (PMA−/PMA+); details: human, 48 h
Description: as §3
as §1, with “The cytotoxic concentration of nucleoside analogue that inhibits cell viability by 50% (CC50) and the effective concentration of nucleoside analogue that inhibits infection of cells by 50% (EC50) were calculated for each independent experiment by non-linear regression using GraphPad Prism v6.00 for Windows (GraphPad Software, San Diego, CA). Non-ambiguous” for “Non-ambiguous”

[9] = system: THP-1 cells; assay: Cytotoxicity, live cells by flow cytometry, THP-1 cells (PMA−/PMA+); details: human, 48 h
Description: as §3
as §1, with “The cytotoxic concentration of nucleoside analogue that inhibits cell viability by 50% (CC50) and the effective concentration of nucleoside analogue that inhibits infection of cells by 50% (EC50) were calculated for each independent experiment by non-linear regression using GraphPad Prism v6.00 for Windows (GraphPad Software, San Diego, CA). Non-ambiguous” for “Non-ambiguous”

[10] = Human immunodeficiency virus 1, THP-1, read-out: EC50 [95% CI], THP1 PMA+
[11] = Human immunodeficiency virus 1, THP-1, read-out: EC50 [95% CI], THP1 PMA−
[12] = Human immunodeficiency virus 1, U-937, read-out: EC50 [95% CI], U937 PMA+
[13] = Human immunodeficiency virus 1, U-937, read-out: EC50 [95% CI], U937 PMA−
[14] = Human immunodeficiency virus 1, U-937, read-out: EC50 [95% CI], U937 PMA+, HD206/7AA+ population
[15] = Human immunodeficiency virus 1, U-937, read-out: EC50 [95% CI], U937 PMA+, SAMHD1+ population
[16] = Human immunodeficiency virus 1, U-937, read-out: EC50 [95% CI], U937 PMA−, HD206/7AA+ population
[17] = Human immunodeficiency virus 1, U-937, read-out: EC50 [95% CI], U937 PMA−, SAMHD1+ population
[18] = Human immunodeficiency virus 1, THP-1, read-out: EC50 [95% CI], THP1 PMA+, Vpx+
[19] = Human immunodeficiency virus 1, THP-1, read-out: EC50 [95% CI], THP1 PMA+, Vpx−
[20] = Human immunodeficiency virus 1, THP-1, read-out: EC50 [95% CI], THP1 PMA−, Vpx+
[21] = Human immunodeficiency virus 1, THP-1, read-out: EC50 [95% CI], THP1 PMA−, Vpx−

Compound | EC50 [1, 10] | EC50 [1, 11] | EC50 [1, 12] | EC50 [1, 13] | SI, selectivity index CC50/EC50 ([1]; THP-1 PMA+) | SI, selectivity index CC50/EC50 ([1]; THP-1 PMA−) | SI, selectivity index CC50/EC50 ([1]; U937 PMA+) | SI, selectivity index CC50/EC50 ([1]; U937 PMA−) | EC50 [2, 14] | EC50 [2, 15] | EC50 [2, 16] | EC50 [2, 17] | Fold (EC50 HD206/7AA vs SAMHD1) ([2]; U937 PMA+) | Fold (EC50 HD206/7AA vs SAMHD1) ([2]; U937 PMA−) | EC50 [3, 18] | EC50 [3, 19] | EC50 [3, 20] | EC50 [3, 21] | Fold (EC50 Vpx+ vs Vpx−) ([3]; THP1 PMA+) | Fold (EC50 Vpx+ vs Vpx−) ([3]; THP1 PMA−) | also measured
Cc1ccnc2c1NC(=O)c1cccnc1N2C1CC1 [NVP, Nevirapine] | 219 nM | 369 nM | 118 nM | 505 nM | > 913 | > 542 | > 1695 | > 396 | 145 nM | 97 nM | 124 nM | 112 nM | 1 fold | 1 fold | 235 nM | 223 nM | 292 nM | 244 nM | 1 fold | 1 fold | CC50 at 48 h ([4]; H9 cells, read-out: CC50): > 200000 nM; CC50 at 48 h ([5]; Jurkat cells, read-out: CC50): > 200000 nM; CC50 at 48 h ([6]; PMA-differentiated, non-dividing U937 cells (PMA+), U937 PMA+, read-out: CC50): > 200000 nM; CC50 at 48 h ([6]; undifferentiated U937 cells (PMA−), U937 PMA−, read-out: CC50): > 200000 nM; CC50 at 48 h ([7]; PMA-differentiated, non-dividing THP-1 cells (PMA+), THP-1 PMA+, read-out: CC50): > 200000 nM; CC50 at 48 h ([7]; undifferentiated THP-1 cells (PMA−), THP-1 PMA−, read-out: CC50): > 200000 nM
Cc1nnc(C(=O)NC(C)(C)c2nc(C(=O)NCc3ccc(F)cc3)c(O)c(=O)n2C)o1 [RAL, Raltegravir] | 37 nM | 44 nM | 63 nM | 13 nM | > 5405 | > 4545 | > 3175 | > 15385 | 75 nM | 70 nM | 12 nM | 11 nM | 1 fold | 1 fold | 37 nM | 38 nM | 43 nM | 35 nM | 1 fold | 1 fold | CC50 at 48 h ([4]; H9 cells, read-out: CC50): > 200000 nM; CC50 at 48 h ([5]; Jurkat cells, read-out: CC50): > 200000 nM; CC50 at 48 h ([6]; U937 PMA+, read-out: CC50): > 200000 nM; CC50 at 48 h ([6]; U937 PMA−, read-out: CC50): > 200000 nM; CC50 at 48 h ([7]; THP-1 PMA+, read-out: CC50): > 200000 nM; CC50 at 48 h ([7]; THP-1 PMA−, read-out: CC50): > 200000 nM
Cc1cn([C@H]2C=C[C@@H](CO)O2)c(=O)[nH]c1=O [d4T, 2′,3′-didehydro-2′,3′-dideoxythymidine] | 3950 nM | 6210 nM | 7040 nM | 6550 nM | > 51 | > 32 | > 28 | > 31 | 5820 nM | 528 nM | 2710 nM | 801 nM | 11 fold | 3 fold | 52200 nM | 1490 nM | 13300 nM | 4390 nM | 35 fold |  | fold increase of anti-HIV-1 activity in PMA+ over PMA− cells ([1]; THP-1): 2 fold; CC50 at 48 h [4]: > 200000 nM; CC50 at 48 h [5]: > 200000 nM; CC50 at 48 h [6]: > 200000 nM; CC50 [8]: > 200000 nM; CC50 at 48 h [7]: > 200000 nM; CC50 [9]: > 200000 nM
